Values quoted from earlier work as cited in US20110236473A1, “STABLE ALISKIREN FORMULATIONS” (Sanovel Ilac Sanayi Ve Ticaret Anonim Sirketi, priority 2010, published 2011).
Where two headings read alike, the source gives them in different places.

- solubility (in n-octanol): freely soluble
- solubility (in phosphate buffer): freely soluble
- solubility (in water): freely soluble
Structure (SMILES): COCCCOc1cc(C[C@@H](C[C@H](N)[C@@H](O)C[C@@H](C(=O)NCC(C)(C)C(N)=O)C(C)C)C(C)C)ccc1OC [Aliskiren hemifumarate, (2S,4S,5S,7S)-5-amino-N-(2-carbamoyl-2-methylpropyl)-4-hydroxy-2-isopropyl-7-[4-methoxy-3-(3-methoxypropoxy)benzyl]-8-methylnonamide]
